Reference: publication PMC9230455 (Pharmaceuticals, 2022)
Blank lines part the entries; values can stand above or below the molecule they belong to.

Key:
[1] = system: impaired glucose tolerance (IGT) mice; assay: Oral glucose tolerance test in impaired glucose tolerance (IGT) mice; type: in vivo, mouse; parameters: AUC of Day 1, Blood glucose level (120 min): unit not given beside the values; settings: for Blood Glucose Value of 30 min: 30 min after 2.5 g/kg glucose gavage; for Blood Glucose Value of 30 min / Blood Glucose Value of 60 min / Blood Glucose Value of 90 min / Blood Glucose Value of 120 min / Fasting Blood Glucose Level: M ± SD, n = 8; for Blood Glucose Value of 60 min: 60 min after 2.5 g/kg glucose gavage; for Blood Glucose Value of 90 min: 90 min after 2.5 g/kg glucose gavage; for Blood Glucose Value of 120 min: 120 min after 2.5 g/kg glucose gavage
Description: After in vitro experiments were conducted to investigate the DPP-4 inhibition ability and receptor affinity of GLP-1RAs, further in vivo experiments were conducted to compare the hypoglycemic effects of GLP-1RAs on impaired glucose tolerance (IGT) mice. The model of IGT mice was established by a one-week injection of streptozotocin, compared with the normal glucose tolerance (NGT) group, the increase in blood glucose in the IGT group after intragastric glucose administration was statistically significant, and the increase in blood glucose in each experimental group was similar after grouping (as shown in Table A2). Each group was fasted for 9 h before the last administration, fasting blood glucose (FBG) was measured one hour after administration, and then an oral glucose tolerance test (OGTT) was performed.
After fasting for 9 h, the OGTT was performed again the next day. The duration of GLP-1RAs was measured using the second day’s OGTT. […] The blood glucose level of the G1 group was lower than that of the vehicle group at each time point, and the difference was statistically significant. […] The blood sugar of IGT mice can be well controlled at a level equivalent to that of NGT mice, and the effect time of the drug was more than 24 h.
Male KM mice age 6–8 weeks with weight of 18–25 g were selected and injected with STZ at a dose of 40 mg/kg per mouse to establish mouse model of IGT. One week after the injection, OGTT was performed. Blood was collected from the tail tip of each mouse to measure the blood glucose concentration. Mice with blood glucose level increase greater than 200% after intragastric administration of glucose were selected. […] The NGT and vehicle groups were treated with normal saline, and the other groups were treated with the corresponding protein solution diluted to 20 µmol/L with normal saline. Each mouse was injected with 25 µL/10 g body weight. The FBG of each group was measured one hour after the last administration, and then 2.5 g/kg glucose solution was administered by gavage immediately, and blood glucose was measured at 30, 60, 90, and 120 min after gavage. The FBG was measured the same time the next day, and the glucose solution was administered by gavage again at 2.5 g/kg. Blood glucose was measured 30, 60, 90, and 120 min after gavage. The statistical software GraphPad Prism 8.0, was used to process the data. The blood glucose level at each time point was compared between the groups using two-way analysis of variance. p < 0.05 was considered statistically different.

[2] = target: dipeptidyl peptidase-4 (DPP-4) (UniProt P27487)
[3] = first day OGTT, 20 µmol/L protein, 25 µL/10 g injected

Sequence of UniProt P27487 (P27487 whole entry): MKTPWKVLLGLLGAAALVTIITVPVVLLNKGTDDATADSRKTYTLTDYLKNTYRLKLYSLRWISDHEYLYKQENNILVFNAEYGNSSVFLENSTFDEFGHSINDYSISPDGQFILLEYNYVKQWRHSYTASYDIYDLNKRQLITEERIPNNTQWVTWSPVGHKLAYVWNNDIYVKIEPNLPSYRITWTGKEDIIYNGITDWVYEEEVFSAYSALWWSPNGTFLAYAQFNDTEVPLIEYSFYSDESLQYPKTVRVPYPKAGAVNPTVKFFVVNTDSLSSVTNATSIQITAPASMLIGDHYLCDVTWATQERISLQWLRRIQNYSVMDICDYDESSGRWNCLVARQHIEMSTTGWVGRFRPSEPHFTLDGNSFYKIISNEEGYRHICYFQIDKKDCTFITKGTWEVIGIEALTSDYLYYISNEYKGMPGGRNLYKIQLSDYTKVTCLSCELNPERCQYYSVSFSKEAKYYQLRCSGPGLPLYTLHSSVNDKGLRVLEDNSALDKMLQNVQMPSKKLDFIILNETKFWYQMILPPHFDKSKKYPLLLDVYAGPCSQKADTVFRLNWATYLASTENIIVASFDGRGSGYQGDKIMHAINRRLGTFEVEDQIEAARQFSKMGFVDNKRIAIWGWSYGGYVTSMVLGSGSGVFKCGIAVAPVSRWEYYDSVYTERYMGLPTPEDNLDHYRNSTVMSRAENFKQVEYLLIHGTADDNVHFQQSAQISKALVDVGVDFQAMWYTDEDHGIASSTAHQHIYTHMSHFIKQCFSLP

Molecule: CC[C@H](C)[C@H](NC(=O)[C@H](Cc1ccccc1)NC(=O)[C@H](CCC(=O)O)NC(=O)[C@H](CCCCN)NC(=O)[C@H](C)NC(=O)[C@H](C)NC(=O)[C@H](CCC(N)=O)NC(=O)CNC(=O)[C@H](CCC(=O)O)NC(=O)[C@H](CC(C)C)NC(=O)[C@H](Cc1ccc(O)cc1)NC(=O)[C@H](CO)NC(=O)[C@H](CO)NC(=O)[C@@H](NC(=O)[C@H](CC(=O)O)NC(=O)[C@H](CO)NC(=O)[C@@H](NC(=O)[C@H](Cc1ccccc1)NC(=O)[C@@H](NC(=O)CNC(=O)[C@H](CCC(=O)O)NC(=O)[C@H](C)NC(=O)[C@@H](N)Cc1c[nH]cn1)[C@@H](C)O)[C@@H](C)O)C(C)C)C(=O)N[C@@H](C)C(=O)N[C@@H](Cc1c[nH]c2ccccc12)C(=O)N[C@@H](CC(C)C)C(=O)N[C@H](C(=O)N[C@@H](CCCCN)C(=O)NCC(=O)N[C@@H](CCCNC(=N)N)C(N)=O)C(C)C [GLP-1, Glucagon-like peptide-1]
AUC of Day 1, Blood glucose level (120 min) ([1]; first day OGTT in IGT mice, 0-120 min, vehicle 60.54, NGT 40.57): 47.54
Blood Glucose Value of 30 min [1, 3]: 18.2 ± 1.9 mmol/L
Blood Glucose Value of 60 min [1, 3]: 13.6 ± 1.7 mmol/L
Blood Glucose Value of 90 min [1, 3]: 9.3 ± 2.3 mmol/L
Blood Glucose Value of 120 min [1, 3]: 7.9 ± 1.3 mmol/L
Fasting Blood Glucose Level ([1]; first day, IGT mice (STZ, male KM), fasted 9 h, one hour after last administration, 20 µmol/L protein, 25 µL/10 g injected): 4.9 ± 0.7 mmol/L
Fasting Blood Glucose Level ([1]; second day (no new dose), IGT mice fasted 9 h): 5.9 ± 1.1 mmol/L
Blood Glucose Value of 30 min ([1]; second day OGTT): 25.1 ± 4.1 mmol/L
Blood Glucose Value of 60 min ([1]; second day OGTT): 18.2 ± 3.4 mmol/L
Blood Glucose Value of 90 min ([1]; second day OGTT): 11.6 ± 1.9 mmol/L
Blood Glucose Value of 120 min ([1]; second day OGTT): 9.2 ± 1.3 mmol/L

Molecule: G2 (GLP-1 receptor agonist: antiparallel β lamellar domain of superoxide dismutase at the amino terminus of GLP-1) (designed binder)
Area Under Curve of the residual percentage (ELISA) during digestion with excess DPP-4, up to 24 h, 30 °C, PBS pH 7.4 [2]: 1.34

The next lines start with the values.

Area Under Curve of the residual percentage (ELISA) during digestion with excess DPP-4, up to 24 h, 30 °C, PBS pH 7.4 [2]: 5.14
Molecule: G1 (GLP-1 receptor agonist: GLP-1 Val33Cys, linker GCGGGGGG, antiparallel β lamellar domain of superoxide dismutase at the C-terminus) (designed binder)

Area Under Curve of the residual percentage (ELISA) during digestion with excess DPP-4, up to 24 h, 30 °C, PBS pH 7.4 [2]: 2.47
Molecule: G4 (GLP-1 receptor agonist: GLP-1 Ser18Cys with the antiparallel β lamellar domain of superoxide dismutase at the C-terminus, without the linker) (designed binder)

Area Under Curve of the residual percentage (ELISA) during digestion with excess DPP-4, up to 24 h, 30 °C, PBS pH 7.4 [2]: 1.02
Molecule: human GLP-1 (glucagon-like peptide-1)
